Like-named read-outs stand apart in the source and are kept apart here.
Assays:
[1] = tested on: breast cancer cell lines; assay: cells; settings: Homo sapiens
[2] = tested on: breast cancer cell lines
[3] = tested on: ERBB2-positive tumors from human cancer patients; assay: Progression free survival in a tumor panel stratified by the 6-gene computational model (Example 7); format: in vivo; settings: sensitive if predicted log(GI50)≦0.4
Source text: The computational model described in Example 6 was applied to the mRNA expression levels obtained to predict the Lapatinib sensitivity status of the tumors. […] The progression free survival of those predicted responders (sensitive) were compared to the non-responders (resistant).

[4] = tested on: ERBB2-positive patients with advanced or metastatic breast cancer
Protocol: Quantitative mRNA levels of the transcripts were measured relative to GAPDH using the branch capture (BC) assay from Panomics using RNA extracted from single 10 micrometer FFPE sections from each tumor. Adjacent H&E stained sections were analyzed for tumor content and samples with <50% tumor were excluded. Transcript levels measured using the Panomics BC assay were normalized to Affymetrix microarray equivalent levels using a mapping function developed using measurements of the transcript levels measured in 22 breast cancer cell lines using both platforms. These functions were then applied to Panomics BC transcript levels for tumor samples to obtain Affymetrix-equivalent transcript levels for each of the EERBB2, GRB7, CRK, ACOT9, CBX5, and DDX5 genes. The weights in the 6-gene predictive model for the tumors were the same as determined from cell lines.
EGF20009 was a randomized, first line phase II trial in ERBB2-positive patients with advanced or metastatic breast cancer in which patients received Lapatinib as monotherapy. 138 patients with ERBB2-amplified tumors were randomly assigned to one of two Lapatinib dose cohorts: 69 patients received Lapatinib 1,500 mg once daily, and the remaining 69 patients received Lapatinib 500 mg twice daily. Samples from patients treated at both levels of Lapatinib were included in the study and patients were stratified into three groups based on tumor ERBB2 mRNA expression levels measured using the Panomics BC assay. Patients with the highest ERBB2 expression levels were assigned to a group designated as sensitive, patients with the lowest ERBB2 expression levels were assigned to a group designated as resistant and the remaining patients were assigned to an intermediate group (n=53). Patients whose tumors assigned to the intermediate group were further stratified into resistant and sensitive classes by using the 6-gene predictor set and a single response predictor CBX5, respectively.

CS(=O)(=O)CCNCc1ccc(-c2ccc3ncnc(Nc4ccc(OCc5cccc(F)c5)c(Cl)c4)c3c2)o1 [Lapatinib]
GI50 ([1]; AU565, read-out: log10(GI50), cell line AU565 (converted), Training sample): 0.0234 µM
GI50 ([1]; BT-474, read-out: log10(GI50), cell line BT474 (converted), Training sample): 0.03 µM
GI50 ([1]; BT-483, read-out: log10(GI50), cell line BT483 (converted), Training sample): 1.89 µM
GI50 ([1]; BT-549, read-out: log10(GI50), cell line BT549 (converted), Training sample): 25.1 µM
GI50 ([1]; CAMA-1, read-out: log10(GI50), cell line CAMA1 (converted), Test sample): 32.1 µM
GI50 ([1]; HBL-100, read-out: log10(GI50), cell line HBL100 (converted), Training sample): 6.33 µM
GI50 ([1]; HCC38, read-out: log10(GI50), cell line HCC38 (converted), Training sample): 5 µM
GI50 ([1]; HCC70, read-out: log10(GI50), cell line HCC70 (converted), Test sample): 0.5 µM
GI50 ([1]; HCC202, read-out: log10(GI50), cell line HCC202 (converted), Test sample): 0.015 µM
GI50 ([1]; HCC1143, read-out: log10(GI50), cell line HCC1143 (converted), Training sample): 3.04 µM
GI50 ([1]; HCC1187, read-out: log10(GI50), cell line HCC1187 (converted), Test sample): 7.35 µM
GI50 ([1]; HCC1428, read-out: log10(GI50), cell line HCC1428 (converted), Test sample): 10 µM
GI50 ([1]; HCC1500, read-out: log10(GI50), cell line HCC1500 (converted), Training sample): 1.6 µM
GI50 ([1]; HCC1569, read-out: log10(GI50), cell line HCC1569 (converted), Training sample): 0.1 µM
GI50 ([1]; HCC1937, read-out: log10(GI50), cell line HCC1937 (converted), Training sample): 3 µM
GI50 ([1]; HCC1954, read-out: log10(GI50), cell line HCC1954 (converted), Training sample): 0.3 µM
GI50 ([1]; Hs-578T, read-out: log10(GI50), cell line HS578T (converted), Training sample): 10 µM
GI50 ([1]; MCF7, read-out: log10(GI50), cell line MCF7 (converted), Training sample): 6 µM
GI50 ([1]; MCF-10A, read-out: log10(GI50), cell line MCF10A (converted), Training sample): 3 µM
GI50 ([1]; MCF-12A, read-out: log10(GI50), cell line MCF12A (converted), Test sample): 4 µM
GI50 ([1]; MDA-MB-157, read-out: log10(GI50), cell line MDAMB157 (converted), Training sample): 10 µM
GI50 ([1]; MDA-MB-231, read-out: log10(GI50), cell line MDAMB231 (converted), Training sample): 10 µM
GI50 ([1]; MDA-MB-361, read-out: log10(GI50), cell line MDAMB361 (converted), Training sample): 1.2 µM
GI50 ([1]; MDA-MB-435, read-out: log10(GI50), cell line MDAMB435 (converted), Training sample): 10 µM
GI50 ([1]; MDA-MB-436, read-out: log10(GI50), cell line MDAMB436 (converted), Training sample): 30 µM
GI50 ([1]; MDA-MB-453, read-out: log10(GI50), cell line MDAMB453 (converted), Training sample): 3 µM
GI50 ([1]; MDA-MB-468, read-out: log10(GI50), cell line MDAMB468 (converted), Training sample): 10 µM
GI50 ([1]; SK-BR-3, read-out: log10(GI50), cell line SKBR3 (converted), Test sample): 0.03 µM
GI50 ([1]; SUM52PE, read-out: log10(GI50), cell line SUM52PE (converted), Training sample): 15 µM
GI50 ([1]; SUM149PT, read-out: log10(GI50), cell line SUM149PT (converted), Training sample): 0.3 µM
GI50 ([1]; SUM185PE, read-out: log10(GI50), cell line SUM185PE (converted), Training sample): 12 µM
GI50 ([1]; SUM-159-PT, read-out: log10(GI50), cell line SUM159PT (converted), Training sample): 3 µM
GI50 ([1]; T47D, read-out: log10(GI50), cell line T47D (converted), Test sample): 25 µM
GI50 ([1]; UACC-812, read-out: log10(GI50), cell line UACC812 (converted), Training sample): 0.015 µM
GI50 ([1]; ZR-75-1, read-out: log10(GI50), cell line ZR75.1 (converted), Test sample): 20 µM
GI50 ([1]; ZR-75B, read-out: log10(GI50), cell line ZR75B (converted), Test sample): 8 µM
GI50 ([1]; read-out: average log(GI50), training set of 30 breast cancer cell-lines (converted)): 2.51 µM
GI50 ([1]; read-out: log10(GI50), cell line 600MPE (converted), Training sample): 8 µM
GI50 ([1]; read-out: log10(GI50), cell line HCC2185 (converted), Training sample): 8 µM
GI50 ([1]; read-out: log10(GI50), cell line HCC3153 (converted), Training sample): 10 µM
GI50 ([1]; read-out: log10(GI50), cell line LY2 (converted), Training sample): 8 µM
dynamic range of the GI50 response data ([2]; across 40 breast cancer cell lines): > 3 logs
Sensitivity ([2]; cell line AU565 found sensitive to Lapatinib): Yes
Sensitivity ([2]; cell line BT474 found sensitive to Lapatinib): Yes
Sensitivity ([2]; cell line HCC202 found sensitive to Lapatinib): Yes
Sensitivity ([2]; cell line HCC1569 found sensitive to Lapatinib): Yes
Sensitivity ([2]; cell line HCC1954 found sensitive to Lapatinib): Yes
Sensitivity ([2]; cell line SKBR3 found sensitive to Lapatinib): Yes
Sensitivity ([2]; cell line SUM149PT found sensitive to Lapatinib): Yes
Sensitivity ([2]; cell line UACC812 found sensitive to Lapatinib): Yes
median survival of predicted responders compared to non-responders [3]: longer
hazards ratio (HR), predicted sensitive vs predicted resistant patients ([4]; intermediate ERBB2 expression group (n=53), 6-gene predictor set): 0.383
hazards ratio (HR), predicted sensitive vs predicted resistant patients ([4]; intermediate group, CBX5 single predictor): 0.25
median survival ([4]; intermediate group, patients predicted to be resistant, CBX5 single predictor): 61 days
median survival ([4]; intermediate group, patients predicted to be sensitive, CBX5 single predictor): 176 days
response rate ([4]; patients predicted to be resistant, CBX5 single predictor): 17%
response rate ([4]; patients predicted to be sensitive, CBX5 single predictor): 56%
